Type in all cases: cell-based, human
Assay [1] concerns dermal fibroblasts. Description: Hyaluronan pericellular coat formation by dermal fibroblasts (particle exclusion assay). The note with it: TGF-β1 10 ng/ml, absence of PEP005, 24 h. From the text: (§1) A normal adult skin biopsy (6 mm) was obtained (n=1), with informed consent, from an individual attending the Oral Surgery Clinic, School of Dentistry, Wales College of Medicine, Cardiff. Following the application of a local anaesthetic, the dermal biopsy was collected and adult dermal fibroblast cultures established by single cell suspension technique, following enzymic degradation of the specimen. This technique has previously been reliably used to establish viable primary cultures of both oral and dermal fibroblasts in vitro (Cook et al, 2000; Stephens et al, 2001; 2003). Dermal fibroblasts were cultured in Fibroblast-Serum Containing Medium, containing Dulbecco's Modified Eagle's Medium (DMEM), supplemented with L-glutamine (2 mM), antibiotics (100 U/ml) penicillin G sodium, […] streptomycin sulphate and 0.25 μg/ml amphotericin B) and 10% foetal calf serum (all purchased from Invitrogen Ltd., Paisley, U.K.). Dermal fibroblast cultures were maintained at 37° C., in a 5% CO2/95% air atmosphere, with the culture medium being changed every 2-3 days. Dermal fibroblasts were used between) passage 7-17, for all experiments.
Following trypsinization, dermal fibroblasts were seeded in 53 mm bacteriological grade culture dishes (VWR International Ltd., Leicestershire, U.K.), in PEP005-free, Fibroblast-Serum Containing Medium (2 ml), at a density of 7×10^4 cell/dish. Dermal fibroblasts were maintained at 37° C., in a 5% CO2/95% air atmosphere, overnight, prior to washing in PBS (2×2 ml) and maintenance in serum-free, Fibroblast-Serum Containing Medium (2 ml), containing 0 μg/ml, 0.01 μg/ml, 0.1 μg/ml, 1 μg/ml, 10 μg/ml or 100 μg/ml PEP005, +/−TGF-β1 (10 ng/ml) (three culture dishes per PEP005 concentration). A control was also established, consisting of cells in serum-free, Fibroblast-Serum Containing Medium, containing 1% DMSO. The dermal fibroblasts were maintained at 37° C., in a 5% CO2/95% air atmosphere, for 24 h or 72 h. At 24 h and 72 h, the culture dishes were treated with formalized horse blood erythrocytes (TCS Biosciences Ltd., Buckinghamshire, U.K.). The formalized horse blood erythrocytes were washed in PBS, to remove sodium azide (3×20 ml) and centrifuged at 100 g/7 min, at 4° C. The erythrocyte cell pellet obtained was re-suspended in serum-free, Fibroblast-Serum Containing Medium, to a density of 1×10^8 cells/ml. Aliquots of the erythrocyte cell suspension (500 μl) were supplemented to each culture dish and the dishes agitated, prior to maintenance at 37° C., in a 5% CO2/95% air atmosphere, for 15 min. Zones of erythrocyte exclusion were visualized by light microscopy, using a Zeiss Axiovery 135 Inverted Microscope (Carl Zeiss Ltd., Hertfordshire, U.K.), with a Hamamatsun C5985 chilled CCD camera (Hamamatsu Photonics U.K. Ltd., Hertfordshire, U.K.) and using Openlab Software 3.0.8 (Improvision Ltd., Warwickshire, U.K.). Each experiment was performed on three separate occasions.

Assay [2] deals with HAS2. Description: HAS2 gene expression by dermal fibroblasts (qPCR). The note with it: TGF-β1 10 ng/ml.
Excerpt: as §1
(§2) Following trypsinization, dermal fibroblasts were seeded in 24-well tissue culture plates, in PEP005-free, Fibroblast-Serum Containing Medium (1 ml), at a cell density of 2.5×10^4 cell/well. Dermal fibroblasts were maintained at 37° C., in a 5% CO2/95% air atmosphere, overnight. At this stage, the culture medium was replaced with Fibroblast-Serum Containing Medium (600 μl), containing 0 μg/ml, 0.01 μg/ml, 0.1 μg/ml, 1 μg/ml, 10 μg/ml or 100 μg/ml PEP005, +/−TGF-β1 (10 ng/ml) (three culture wells per PEP005 concentration). A control was also established, consisting of cells in Fibroblast-Serum Containing Medium, containing 1% DMSO. The dermal fibroblasts were maintained at 37° C., in a 5% CO2/95% air atmosphere, for 24 h or 72 h, prior to washing in PBS (3×1 ml) and Trizol® Reagent (250 μl) added to the cells, for 5 min at room temperature, to induce cell lysis. RNA was extracted by the phenol-chloroform method, as described above, while a cDNA library was generated via random hexamer RT, as described above. RNA (1 μg) was added to 100 µM random hexamer (1 μl), 5×RT Buffer (4 μl), 2.5 mM Deoxynucleoside Triphosphates (dNTPs, 5 μl), 2 μl DTT and Nuclease-Free Water, were added to the reaction (total volume, 20 μl). To denature the RNA, reaction tubes were placed in a GeneAmp PCR System 9700 (Applied Biosystems, Cheshire, U.K.) and heated for 5 min/95° C., prior to cooling to 4° C. Superscript (1 μl) and RNAsin® Ribonuclease Inhibitor (1 μl, Promega, Hampshire, U.K.) were added to each tube, and the tubes subjected to […] at 20° C. for 10 min, 42° C. for 1 h and 95° C. for 5 min, prior to storage at 4° C., until required. As a negative control, RT was also performed, with Nuclease-Free Water replacing the RNA sample.
(§3) qPCR was performed, as described above, with the probe and primers for HAS1, HAS2 and HAS3 (target genes) and the 18s ribosomal RNA (reference gene), designed and supplied by Applied Biosystems. PCR was performed in a final volume of 20 μl/sample, with each reaction mix consisting of cDNA (1 μl), target gene primers and probe (1 μl), Taqman® FAST Universal PCR Master Mix (10 μl, Applied Biosystems), and Nuclease-Free Water (8 μl). PCR amplification was performed, using an initial cycle of 95° C. for 1 s, followed by 40 cycles of 60° C. for 20 s. A cDNA-free control was also included. Again, the comparative CT method was used for relative quantification of gene expression. Each experiment was performed on three separate occasions.
On the technique in general: Real-time PCR tracks product formation cycle by cycle.

In assay [3] the test system is HAS1. Description: HAS1 gene expression by dermal fibroblasts (qPCR). The conditions noted are these: TGF-β1 10 ng/ml.
Excerpt: as §1, §2, §3

For assay [4], the system named is dermal fibroblasts. Description: Hyaluronan synthesis by dermal fibroblasts (Hyaluronic Acid Quantitative Test Kit). The note with it: TGF-β1 10 ng/ml, absence of PEP005, 24 h.
Excerpt: as §1
Following trypsinization, dermal fibroblasts were seeded in 24-well tissue culture plates in PEP005-free, Fibroblast-Serum Containing Medium (1 ml), at a cell density of 2.5×10^4 cell/well. Dermal fibroblasts were maintained at 37° C., in a 5% CO2/95% air atmosphere, for 48 h, prior to maintenance in serum-free, Fibroblast-Serum Containing Medium (1 ml), for a further 48 h. At this stage, the serum-free, culture medium was replaced with Fibroblast-Serum Containing Medium (600 μl), containing 0 μg/ml, 0.01 μg/ml, 0.1 μg/ml, 1 μg/ml, 10 μg/ml or 100 μg/ml PEP005, +/−TGF-β1 (10 ng/ml) (three culture wells per PEP005 concentration). A control was also established, consisting of cells in serum-free, Fibroblast-Serum Containing Medium, containing 1% DMSO. The dermal fibroblasts were maintained at 37° C., in a 5% CO2/95% air atmosphere, for 24 h or 72 h, prior to culture medium removal. Hyaluronan synthesis in the collected culture media was quantified, using a Hyaluronic Acid Quantitative Test Kit (Corgenix U.K. Ltd., Cambridgeshire, U.K.), which utilizes a naturally occurring bovine binding protein to hyaluronan. Supernatants were assayed, as per manufacturer's instructions, and optical density measured using a spectrophotometer at 450 nm. Hyaluronan concentrations were determined by comparing the absorbance of the sample against a reference curve prepared from the reagent blank and standards. Each experiment was performed on three separate occasions.

Assay [5] concerns HAS3. Description: HAS3 gene expression by dermal fibroblasts (qPCR). The conditions noted are these: TGF-β1 10 ng/ml.
Excerpt: as §1, §2, §3

Turning to “TGF-β1: TGF-β1 (10 ng/ml) added to dermal fibroblast cultures with or without PEP005 [reference compound]”, the “hyaluronan pericellular coat formation” value in assay [1] is recorded as “slight increase”. The HAS2 expression result in assay [2] (absence of PEP005, 24 h) is reported as “little effect”; in assay [2] (absence of PEP005, 72 h (p>0.05)), “minimal effects”. Moreover, the HAS1 expression result in assay [3] (absence of PEP005, 24 h, compared to control fibroblasts (p<0.001)) is “major up-regulation”; in assay [3] (absence of PEP005, 72 h, compared to control fibroblasts), “up-regulation”. Moreover, the hyaluronan synthesis result in assay [4] is “slight stimulation”. The HAS3 expression result in assay [5] (absence of PEP005, 24 h (p<0.01)) is given as “inhibitory effect”; in assay [5] (absence of PEP005, 72 h), “inhibitory effect”.

(Values after patent US10143638B2, “Method of treating skin with ingenol mebutate” (LEO Laboratories Limited, priority 2009, dated 2018).)
